Results reported in ChEMBL document CHEMBL1201862, “PubChem BioAssay data set” (2004).
The source made the active and inactive calls.

Key:
[1] = luciferase reporter signal suppression in cells – H4 neuroglioma cells, luminescence, dose response (AID 1990); format: functional, cell-based
[2] = Luminescence Cell-Based Dose Response HTS to Identify Inhibitors of 5'UTR Stem-Loop Driven Prion Protein mRNA Translation in H4 Neuroglioblastoma Cells. [Related pubchem assays: 1827 (Project Summary), 1813 (Primary HTS)]; format: functional
[3] = alpha-synuclein stem-loop luciferase translation blockers – H4 neuroglioma cells, luminescence, confirmation (AID 1988); format: functional, cell-based
[4] = Trypanosoma cruzi growth suppression in host cells – NIH3T3 host cells, beta-gal luminescence, confirmation (AID 2044); format: functional, cell-based;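 also: intracellular parasites grown in NIH/3T3 mouse fibroblasts as host cells; luminescent beta-galactosidase reporter signal from transgenic T. cruzi replicating inside host cells; inhibitors lower the luminescence signal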
[5] = NIH3T3 cell viability loss – ATP luminescence, mouse fibroblasts, counter-screen, dose response (AID 2010); format: functional, cell-based;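 also: cells exposed to compound for about 90 hours before reading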
[6] = viability of uninfected HEp-2 cells – cell-based, HTS, cytotoxicity control for RSV inhibitor project, dose response (AID 2410); format: functional; settings: human respiratory syncytial virus
[7] = biological target: Cytochrome P450 2C19 (Homo sapiens, UniProt P33261); assay: Cytochrome panel assay with activity outcomes. Panel member name: p450-cyp2c19 Compounds with AC50 equal or less than 10 uM are considered active; format: functional
Cytochrome P450 2C19, sequence (P33261 whole entry): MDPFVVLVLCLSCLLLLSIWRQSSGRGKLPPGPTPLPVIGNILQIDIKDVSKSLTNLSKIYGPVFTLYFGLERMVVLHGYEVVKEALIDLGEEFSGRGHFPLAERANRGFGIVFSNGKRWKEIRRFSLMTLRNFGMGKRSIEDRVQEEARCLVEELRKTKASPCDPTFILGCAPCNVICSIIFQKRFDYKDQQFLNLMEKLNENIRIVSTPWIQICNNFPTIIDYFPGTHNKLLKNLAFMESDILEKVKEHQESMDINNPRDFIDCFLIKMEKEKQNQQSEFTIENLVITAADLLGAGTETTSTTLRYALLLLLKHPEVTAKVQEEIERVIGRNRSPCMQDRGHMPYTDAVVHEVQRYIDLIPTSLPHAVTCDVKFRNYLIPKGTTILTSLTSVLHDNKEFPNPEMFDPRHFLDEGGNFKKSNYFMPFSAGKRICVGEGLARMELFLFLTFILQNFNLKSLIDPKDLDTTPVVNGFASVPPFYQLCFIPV

[8] = biological target: T1, Cytochrome P450 1A2 (Homo sapiens, UniProt P05177);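 also: PubChem cytochrome P450 panel assay, CYP1A2 panel member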
T1 sequence (P05177 whole entry): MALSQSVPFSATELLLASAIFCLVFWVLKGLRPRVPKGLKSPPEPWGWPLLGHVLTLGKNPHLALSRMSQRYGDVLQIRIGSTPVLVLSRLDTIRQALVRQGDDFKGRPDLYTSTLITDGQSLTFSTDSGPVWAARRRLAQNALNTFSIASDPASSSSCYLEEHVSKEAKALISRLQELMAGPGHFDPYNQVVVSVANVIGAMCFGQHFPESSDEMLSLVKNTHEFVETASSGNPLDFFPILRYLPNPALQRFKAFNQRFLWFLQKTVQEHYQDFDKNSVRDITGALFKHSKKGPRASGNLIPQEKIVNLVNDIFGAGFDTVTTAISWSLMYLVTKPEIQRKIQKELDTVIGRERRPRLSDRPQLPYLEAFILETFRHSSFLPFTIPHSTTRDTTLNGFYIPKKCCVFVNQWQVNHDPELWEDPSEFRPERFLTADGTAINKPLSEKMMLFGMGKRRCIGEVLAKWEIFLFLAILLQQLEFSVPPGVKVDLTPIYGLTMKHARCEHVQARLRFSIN

[9] = Luminescence Cell-Based Dose Confirmation HTS to Identify Activators of 5'UTR Stem-Loop Driven Alpha-Synuclein mRNA Translation in H4 Neuroglioblastoma Cells. [Related pubchem assays: 1829 (Project Summary), 1814 (Primary HTS)]; format: functional
[10] = Luminescence Cell-Based Dose Response HTS to Identify Activators of Luciferase Translation or Activity in H4 […] Cells. [Related pubchem assays: 1829 (Project Summary), 1814 (Primary HTS)]; format: functional
[11] = test system: H4; assay: Luminescence Cell-Based Dose Response HTS to Identify Activators of 5'UTR Stem-Loop Driven Prion Protein mRNA Translation in H4 Neuroglioblastoma Cells. [Related pubchem assays: 1829 (Project Summary), 1814 (Primary HTS)]; format: functional; settings: Homo sapiens
[12] = biological target: T2, Corticotropin-releasing factor receptor 2/Corticotropin-releasing factor-binding protein (Homo sapiens, UniProt P24387+Q13324); assay: activators of CRF receptor 2 with binding protein – uHTS hits, confirmation (AID 602473); format: functional; settings: read-out: EC50_Mean
T2 sequence (Q13324 whole entry): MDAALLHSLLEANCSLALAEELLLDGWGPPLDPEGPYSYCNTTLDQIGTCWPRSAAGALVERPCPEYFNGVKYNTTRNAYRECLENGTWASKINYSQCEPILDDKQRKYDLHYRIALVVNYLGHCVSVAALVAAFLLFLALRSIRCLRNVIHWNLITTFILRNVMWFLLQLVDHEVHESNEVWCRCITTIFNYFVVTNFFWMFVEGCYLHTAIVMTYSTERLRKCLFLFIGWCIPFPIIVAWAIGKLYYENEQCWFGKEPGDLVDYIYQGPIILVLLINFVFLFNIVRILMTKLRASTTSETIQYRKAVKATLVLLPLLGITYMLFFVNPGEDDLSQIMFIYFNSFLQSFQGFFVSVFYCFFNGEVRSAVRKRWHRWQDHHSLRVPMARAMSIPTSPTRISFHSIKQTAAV
T2 sequence (P24387 whole entry): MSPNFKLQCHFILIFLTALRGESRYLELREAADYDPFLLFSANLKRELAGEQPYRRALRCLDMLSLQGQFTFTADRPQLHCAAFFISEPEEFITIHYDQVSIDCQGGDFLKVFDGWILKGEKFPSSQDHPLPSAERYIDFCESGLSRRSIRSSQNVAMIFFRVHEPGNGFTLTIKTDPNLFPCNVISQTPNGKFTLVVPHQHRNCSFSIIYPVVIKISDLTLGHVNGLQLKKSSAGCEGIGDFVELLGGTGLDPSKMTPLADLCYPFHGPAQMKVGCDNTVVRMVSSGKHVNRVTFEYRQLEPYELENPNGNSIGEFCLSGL

[13] = biological target: Cytochrome P450 2C9 (Homo sapiens, UniProt P11712)
Cytochrome P450 2C9, sequence (P11712 whole entry): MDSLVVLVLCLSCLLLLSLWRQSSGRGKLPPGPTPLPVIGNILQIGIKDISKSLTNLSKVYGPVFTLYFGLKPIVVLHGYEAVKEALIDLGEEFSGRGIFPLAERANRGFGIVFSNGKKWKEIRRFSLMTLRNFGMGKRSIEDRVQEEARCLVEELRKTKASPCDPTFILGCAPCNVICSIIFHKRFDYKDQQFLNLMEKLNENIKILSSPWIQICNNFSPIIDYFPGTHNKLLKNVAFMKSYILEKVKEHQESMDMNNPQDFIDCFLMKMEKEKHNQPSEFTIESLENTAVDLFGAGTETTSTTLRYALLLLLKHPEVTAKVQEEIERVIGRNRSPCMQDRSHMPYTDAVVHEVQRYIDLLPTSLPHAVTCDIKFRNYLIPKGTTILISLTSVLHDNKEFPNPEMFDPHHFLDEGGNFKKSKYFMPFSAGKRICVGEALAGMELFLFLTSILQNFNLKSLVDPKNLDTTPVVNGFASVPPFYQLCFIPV

[14] = test system: INS1; assay: INS-1E survival protection against cytokine death – cell-based, luminescence, retest, dose response (AID 449756); format: functional; settings: Rattus norvegicus;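 also: cell death triggered by IL-1 beta plus TNF-alpha plus IFN-gamma mixture; protective hits raise ATP signal compared with cytokine alone wells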
[15] = biological target: Cytochrome P450 3A4 (Homo sapiens, UniProt P08684);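 also: CYP3A4 tested as one member of a cytochrome P450 panel screen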
Cytochrome P450 3A4, sequence (P08684 whole entry): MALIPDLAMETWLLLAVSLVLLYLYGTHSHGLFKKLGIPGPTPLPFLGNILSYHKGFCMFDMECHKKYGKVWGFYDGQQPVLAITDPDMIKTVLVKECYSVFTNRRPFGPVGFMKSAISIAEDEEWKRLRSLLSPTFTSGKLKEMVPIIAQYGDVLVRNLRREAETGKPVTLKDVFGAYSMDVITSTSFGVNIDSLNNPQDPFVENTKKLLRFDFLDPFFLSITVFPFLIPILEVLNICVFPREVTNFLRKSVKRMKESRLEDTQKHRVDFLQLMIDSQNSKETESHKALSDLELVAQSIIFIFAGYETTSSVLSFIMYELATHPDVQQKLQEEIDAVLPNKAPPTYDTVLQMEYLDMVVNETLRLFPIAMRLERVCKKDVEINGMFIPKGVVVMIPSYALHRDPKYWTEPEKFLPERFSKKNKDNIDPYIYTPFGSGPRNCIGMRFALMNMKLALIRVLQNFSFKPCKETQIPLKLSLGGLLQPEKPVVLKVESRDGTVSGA

With `COC(=O)C1=CN(C2CCCCC2)C=C(C(=O)OC)C1c1ccc2c(c1)OCO2` the EC50 [1] was 15.8 µM (active), the EC50 [2] was 57.5 µM (active) and the EC50 [3] was > 120 µM (not active). The EC50 [4] was 1.56 µM (active) and the EC50 [5] was > 60 µM (inconclusive).

In the case of `O=C(Nc1cc(Cl)ccc1O)C1CC(c2ccccc2Cl)=NO1` (stereo not given), the CC50 [6] is reported as > 50 µM (active).

For `O=c1c(-c2ccc(F)cc2)nc2cnc(N3CCOCC3)nc2n1CCc1ccccc1`, the AC50 ([7]; read-out: AC50) was 39.8 µM (inconclusive) and the AC50 [8] was 25.1 µM (inconclusive).

In the case of `Cc1nn(-c2ccccc2)c2sc(C(=O)NC3CC3)cc12`, the EC50 [9] is reported as > 120 µM (not active), the EC50 [10] is reported as 48.3 µM (active) and the EC50 [11] is reported as 27.9 µM (active).

In the case of `CCOC(=O)c1cc([N+](=O)[O-])sc1NC(=O)c1ccc(S(=O)(=O)N2CC3(C)CC2CC(C)(C)C3)cc1` (stereo not given), the EC50 [12] is reported as 0.793 µM (active).

In the case of `COC(=O)[C@@]1(Cc2ccccc2)[C@H]2c3cc(C(=O)N(C)C)n(Cc4ccc(S(C)(=O)=O)cc4)c3C[C@H]2CN1C(=O)c1ccccc1`, the AC50 ([7]; read-out: AC50) is reported as 39.8 µM (inconclusive), the AC50 [8] is reported as 31.6 µM (inconclusive) and the AC50 [13] is reported as 25.1 µM (inconclusive).

For `O=C(Nc1cccnc1)c1ccc(CN2CCc3ccccc3C2)cc1`, the EC50 [9] was 50.3 µM (active), the EC50 [10] was 28.6 µM (active) and the EC50 [11] was > 120 µM (not active).

With `CCN(CC)CCN1C(=O)c2oc3ccccc3c(=O)c2C1c1ccc(F)cc1` (stereo not given) the EC50 [9] was > 120 µM (not active), the EC50 [10] was 14.1 µM (active) and the EC50 [11] was 22.4 µM (active).

With `COc1ccccc1NC(=O)CC(=O)CSc1nnc(-c2ccc(C)cc2)n1C` the CC50 [6] was 17.7 µM (active).

In the case of `COC(=O)c1ccc(CSc2nncn2C)cc1`, the EC50 [9] is reported as 9.45 µM (active), the EC50 [10] is reported as 54.3 µM (active) and the EC50 [11] is reported as 11.3 µM (active).

With `CSc1ccc(S(=O)(=O)Nc2ccc(N3CCOCC3)c(Cl)c2)cc1` the AC50 [14] was 29.8 µM (active).

In the case of `O=c1cc(-c2ccccc2Cl)oc2c(NS(=O)(=O)c3cccs3)ccc(O)c12`, the CC50 [6] is reported as 22 µM (active).

In the case of `CC(Oc1ccc(C(=O)c2ccccc2)cc1)C(=O)Nc1ccc(S(N)(=O)=O)cc1` (stereo not given), the EC50 [12] is reported as 8.21 µM (active).

In the case of `N#Cc1cccc(NC(=O)N2CCCC3(CCN(C(=O)Oc4ccccc4)CC3)C2)c1`, the AC50 ([7]; read-out: AC50) is reported as 25.1 µM (inconclusive), the AC50 [8] is reported as 15.8 µM (inconclusive) and the AC50 [15] is reported as 12.6 µM (inconclusive). For the same molecule, the AC50 [13] was 25.1 µM (inconclusive).

With `Clc1ccccc1Cn1nnc2c(N3CCOCC3)nc(C3CC3)nc21` the EC50 [1] was 23.8 µM (active), the EC50 [2] was > 120 µM (not active) and the EC50 [3] was 27 µM (active).

In the case of `CCO[C@@H]1OC(C(=O)Nc2ccccc2)=C[C@H](c2csc3ccccc23)[C@H]1CCCO`, the CC50 [6] is reported as 22.4 µM (active).

In the case of `NC1=C(c2nc3ccccc3[nH]2)C(=O)CN1c1ccccc1`, the EC50 [9] is reported as > 120 µM (not active), the EC50 [10] is reported as 79.8 µM (active) and the EC50 [11] is reported as 6.44 µM (active).

For `CCOC(=O)CN1C(=O)C(Sc2n[nH]c(-c3ccc(C)cc3)n2)CCc2ccccc21` (stereo not given), the EC50 [1] was 19.1 µM (active), the EC50 [2] was > 120 µM (not active) and the EC50 [3] was > 120 µM (not active).

With `COc1ccc(NC(=O)C(c2ccc(OC)cc2)N(C)C(=O)CNC(C)=O)cc1` (stereo not given) the AC50 [7] was “inconclusive”.

In the case of `COc1cc(-n2ccnc2SC)c(Cl)cc1Cl`, the AC50 ([7]; read-out: AC50) is reported as 7.08 µM (inconclusive), the AC50 [8] is reported as 15.8 µM (inconclusive) and the AC50 [13] is reported as 39.8 µM (inconclusive).

In the case of `Cc1ccccc1NC(S)=NN1CCN(C)CC1`, the AC50 ([7]; read-out: AC50) is reported as 25.1 µM (inconclusive).

With `C#CCOCCOCCOCCNc1nc(N2CCN(C(=O)CCCCCCCCCCNC(=O)[C@H](CCCCN)n3cc(C[C@@H](C)CC)nn3)CC2)nc(N2CCN(C(=O)CCCCCCCCCCNC(=O)[C@@H]([C@H](C)O)n3cc(C)nn3)CC2)n1` the AC50 [14] was 4.74 µM (active).

In the case of `O=C(O)c1cc(O)c2c(Cl)cc(Cl)cc2n1`, the AC50 [7] is reported as “inconclusive” and the AC50 [8] is reported as 39.8 µM (inconclusive).
